In paper PMC8962522, “Direct interaction of TrkA/CD44v3 is essential for NGF-promoted aggressiveness of breast cancer cells” (Journal of Experimental & Clinical Cancer Research : CR, 2022):

Tests used:
TrkA = assay: nanoDSF peptide binding to TrkA; details: nanoscale differential scanning fluorimetry, Supplementary Fig. 6A & B
Protocol: To block the TrkA-CD44v3 association, 4 mimetic peptides of CD44v3 were designed corresponding to zone 1 [(K) STSSNTISAG], zone 2 (WEPNEENEDE), zone 3 (RDRHLSFSGSG) and zone 4 (IDDDEDFISST) (Fig. 2F & G). The binding capacities of the CD44v3 mimetic peptides to TrkA were then measured by MST (Fig. 2H). […] To confirm mimetic peptide 4 binding, we assessed its ability to bind TrkA using nanoscale differential scanning fluorimetry (nanoDSF; Supplementary Fig. 6A & B).
(§1) Supplementary file 13046_2022_2314_MOESM3_ESM.pdf: Additional file 3: Supplementary Figure 1. Validation of the ectopic expression of CD44 and/or TrkA in COS-7 cells. The expression of all CD44 isoforms (A), CD44 variant 3 (B), CD44 variant 6 (C) and TrkA ([…]; D) was evaluated by RT–qPCR (normalized using PUM-1). No expression of CD44, CD44 variants [3 or 6] or TrkA was detected in COS-7 cells (A-D) compared with that in cells transfected with the expression plasmid carrying each protein. […] Quantification of the PLA results was performed using ImageJ software (30 randomly chosen fields per condition of three different experiments). […] CD44v3 and CD44v6 levels at the plasma membrane were assessed by flow cytometry (A-D). The plasma membrane and total TrkA and CD44v3 levels were also quantified by confocal microscopy (E-H). […] The CD44v3/NGF interaction was evaluated using microscale thermophoresis (MST). […]

[1] = cited from earlier work
From the text: With more functions than those of a membrane receptor, CD44 is a multifunctional platform implicated in numerous physiological and disease mechanisms. In cancer, it has many functions (e.g., adhesion, migration/invasion, growth, differentiation, and resistance to therapies) depending on the splice variant expressed, corresponding ligands, posttranscriptional modifications, and association with growth factors and different membrane proteins.

[2] = test system: CD44v3 in MDA-MB-231 cells; assay: Flow cytometry, plasma membrane CD44v3; format: cell-based; details: MDA-MB-231, flow cytometry
From the text: The CD44v3- and CD44v6-containing isoforms expressing respectively exon 8 and 11(Fig. 1A) can interact with growth factor receptors. Using COS-7 cells with low CD44 and TrkA expression (Supplementary Fig. 1A-D), we differentially expressed TrkA and CD44s or a CD44 variant, either CD44v3 or CD44v6 (Fig. 1B, supplementary Fig. 2). […] Additionally, we evaluated the expression of TrkA and CD44v3 at the membrane level or in cells by immunofluorescence in MDA-MB-231 cells.
as §1

Row | Substance | binding to TrkA by nanoDSF (in words) (TrkA) | binding to TrkA by nanoDSF (in words) (TrkA; listed as P4) | binding to heparin (in words) [1] | increase of plasma membrane CD44v3 ([2]; CD44v3-APC, histogram with No stim., NGF (5 min), NGF (30 min)) [%] | plasma membrane level of CD44v3 (in words) ([2]; NGF stimulation)
1 | IDDDEDFISST [Peptide 4, mimetic peptide 4 (…) corresponding to the C-terminal region of CD44v3] | bound TrkA | binds to TrkA | – | – | –
2 | NGF: recombinant human β-NGF (Alomone Labs, Israel) | – | – | does not bind heparin | 33 | increased the plasma membrane level of CD44v3
